Earlier results, collected in PMC8764166, “Phenolic-Rich Plant Extracts With Antimicrobial Activity: An Alternative to Food Preservatives and Biocides?” (Frontiers in Microbiology, 2022).

Columns and labels:
[1] = test system: Escherichia coli; details: ref Adamczak et al., 2020
[2] = test system: Salmonella typhimurium; details: ref Phadungkit and Luanratana, 2006
[3] = test system: Bacillus cereus; design: method as in Serra et al. (2008); details: 20 mg·L^−1 quercetin, in grape extract or as solution; ref Serra et al. (2008)
[4] = test system: DNA gyrase; design: method as in Plaper et al., 2003; details: ref Plaper et al., 2003
[5] = test system: biofilms with undesirable food spoiling or foodborne pathogenic microorganisms; design: method as in the references listed per substance; details: the references listed per substance
[6] = test system: B. subtilis, E. coli, S. aureus, and S. typhimurium; design: method as in Dinesh Kumar et al., 2016; details: all test bacteria; ref Dinesh Kumar et al., 2016

SMILES: O=c1c(O)c(-c2ccc(O)c(O)c2)oc2cc(O)cc(O)c12 [Quercetin]
- MIC against E. coli [1]: E. coli 0.5 g·L^−1
- MIC against S. typhimurium [2]: S. typhimurium 15.6 mg·L^−1
- growth of Bacillus cereus [3]: totally inhibited the growth of Bacillus cereus unlike a 20 mg·L^−1 quercetin solution
- DNA gyrase inhibition [4]: – DNA gyrase inhibition either by interaction of quercetin with DNA or with ATP binding site of gyrase
- activity against biofilms [5]: inhibit formation or to eradicate biofilms
- time after which antibacterial effect is lost [6]: 2 to 9 h
